Assay results published in patent publication US8747912B2, “Drug delivery system” (Isis Innovation Limited, priority 2000, dated 2014).

Test: Release of the drugs from their intercalation compounds in phosphate buffer solution at 37° C.
Assay type: physicochemical
Settings: phosphate buffer pH 4, 37° C., stirred at 1000 rpm; intercalate in [LiAl2(OH)6]Cl.H2O; UV of filtrate
Method: Release of the drugs from their intercalation compounds was performed in each case by the addition of 0.0250 g-0.100 g of the intercalation compound to 250 mL phosphate buffer solution at 37° C. […] The release in phosphate buffer at pH 7 and at pH 4 was investigated. Aliquots were removed from the flask at regular time intervals, the solution was filtered and the UV spectrum of the filtrate recorded in a […] quartz cuvette. A baseline scan using the neat solution was recorded prior to the collection of the first spectrum of the filtrate.

release of the drug from its intercalation compound | Compound
rapid | O=C(O)Cc1ccc(-c2ccccc2)cc1 [4-biphenylacetic acid]
rapid | COc1ccc2cc([C@H](C)C(=O)O)ccc2c1 [Naproxen, (+)-2-(6-methoxy-2-naphthyl)propionic acid]
rapid | O=C([O-])Cc1ccccc1Nc1c(Cl)cccc1Cl.[Na+] [Diclofenac, sodium (2-(2,6-dichloroanilino)phenyl)acetate]

Same assay, conditions: phosphate buffer pH 7, 37° C., stirred at 1000 rpm; intercalate in [LiAl2(OH)6]Cl.H2O; UV of filtrate

release of the drug from its intercalation compound | Compound
slower and more controlled | O=C(O)Cc1ccc(-c2ccccc2)cc1 [4-biphenylacetic acid]
slower and more controlled | COc1ccc2cc([C@H](C)C(=O)O)ccc2c1 [Naproxen, (+)-2-(6-methoxy-2-naphthyl)propionic acid]
slower and more controlled | O=C([O-])Cc1ccccc1Nc1c(Cl)cccc1Cl.[Na+] [Diclofenac, sodium (2-(2,6-dichloroanilino)phenyl)acetate]
